According to patent publication US7655681B2, “Method of treating and diagnosing sleep disordered breathing and means for carrying out the method” (priority 2004, dated 2010):

Columns and labels:
[1] = tested on: patient with light to moderate OSA; experiment: Controlled repeated dosing, repeated withdrawal study of zonisamide with polysomnographic recording; format: in vivo, human; conditions: for Sat <90%/hr (number of episodes reaching an oxygen saturation below 90% per hour of sleep): Day 0 baseline 4; for B-gluc (blood glucose concentration): Day 0 baseline 6.7; for CSAI (central sleep apnea index): Day 0 baseline 8; for AI (apnea index, number of obstructive apneas per hour of sleep): Day 0 baseline 16; for HI (hypopnea index, number of obstructive hypopneas per hour of sleep): Day 0 baseline 22; for BMI (body mass index): Day 0 baseline 26.5; for AHI (apnea/hypopnea index): Day 0 baseline 38; for MinSat (lowest oxygen saturation value reached during the sleep recording): Day 0 baseline 82; for DBP (diastolic blood pressure): Day 0 baseline 95; for SBP (systolic blood pressure): Day 0 baseline 165
Experimental: A controlled repeated dosing, repeated withdrawal study of zonisamide was undertaken in a patient (BMI 26.5) with light to moderate OSA (A/H index, 30 and 35 on previous screening). […] A baseline polysomographic recording (standard sleep montage, nasal pressure recording) was undertaken at baseline and zonisamide therapy was started at 100 mg o.d. orally (Zonegran® capsules) with an increase to 400 mg after two weeks and finally to 600 mg at the end of 12 weeks. Repeat sleep recordings were undertaken after 19 days (5 days on 400 mg) and after 90 days (6 days on 600 mg). The following key index data were recorded (Table 1).

[2] = tested on: three male patients with light to moderate/severe OSA; experiment: Uncontrolled repeated dosing study of zonisamide with polysomnography; format: in vivo, human; conditions: for AHI, mean for all patients: baseline mean 30; for BMI, mean for all patients: baseline mean 32; for Sat. min, mean for all patients: baseline mean 84
Experimental: Uncontrolled repeated dosing of zonisamide. An uncontrolled study of three male patients (mean BMI at baseline 32) with light to moderate/severe OSA treated with zonisamide up to an average of 177 days was performed. Polysomnography (standard sleep montage, nasal pressure recording) was undertaken at baseline. Zonisamide therapy was started at 50 or 100 mg o.d. orally (Zonegran® capsules). […] A repeat sleep study (follow-up 1) was undertaken. A further sleep study (follow-up 2) was performed after 165, 218 and 149 days at doses of 400, 600 and 200 mg, respectively. The follow-up 2 measurements were thus performed at a pharmacokinetical steady-state.

[3] = cited from earlier work
[4] = Day 19 (5 days on 400 mg o.d. orally)
[5] = Day 90 (6 days on 600 mg orally)
[6] = during treatment, 100 to 600 mg orally
[7] = starting already after 10 days of treatment
[8] = follow-up 1, mean dose 200 mg, mean 33 days of treatment
[9] = follow-up 2, mean dose 400 mg, mean 177 days of treatment
[10] = patient two, early titration phase, 50 mg zonisamide, simplified sleep recording

For `NS(=O)(=O)Cc1noc2ccccc12` [zonisamide, 1,2-benzisoxazole-3-methanesulfonamide], the “Sat <90%/hr (number of episodes reaching an oxygen saturation below 90% per hour of sleep)” value [1, 4] was <1 per hour of sleep, the B-gluc (blood glucose concentration) [1, 4] was 6.4 mM and the “CSAI (central sleep apnea index)” value [1, 4] was 2 per hour of sleep. The “AI (apnea index, number of obstructive apneas per hour of sleep)” value [1, 4] was 4 per hour of sleep, the “HI (hypopnea index, number of obstructive hypopneas per hour of sleep)” value [1, 4] was 9 per hour of sleep and the “BMI (body mass index)” value [1, 4] was 26.4 kg/m^2. For the same molecule, the “AHI (apnea/hypopnea index)” value [1, 4] was 13 per hour of sleep, the “MinSat (lowest oxygen saturation value reached during the sleep recording)” value [1, 4] was 89 and the “DBP (diastolic blood pressure)” value [1, 4] was 89 mmHg. For the same molecule, the “SBP (systolic blood pressure)” value [1, 4] was 155 mmHg, the “Sat <90%/hr (number of episodes reaching an oxygen saturation below 90% per hour of sleep)” value [1, 5] was 0 per hour of sleep and the B-gluc (blood glucose concentration) [1, 5] was 5.9 mM. The “CSAI (central sleep apnea index)” value [1, 5] was 2 per hour of sleep, the “AI (apnea index, number of obstructive apneas per hour of sleep)” value [1, 5] was 2 per hour of sleep and the “HI (hypopnea index, number of obstructive hypopneas per hour of sleep)” value [1, 5] was 6 per hour of sleep. The “BMI (body mass index)” value [1, 5] was 25.6 kg/m^2, the “AHI (apnea/hypopnea index)” value [1, 5] was 8 per hour of sleep and the “MinSat (lowest oxygen saturation value reached during the sleep recording)” value [1, 5] was 90. The “DBP (diastolic blood pressure)” value [1, 5] was 85 mmHg, the “SBP (systolic blood pressure)” value [1, 5] was 145 mmHg and the “change in total sleep time” value ([1]; after zonisamide) was “no clinically significant change”. The side effects ([1]; during the study period, up to 600 mg orally, 90 days) was “No side effects were reported”, the “number of mixed events” value [1, 6] was “decreased in proportion to the number of obstructive events” and the “polysomnographically recorded sleep variables” value [1, 6] was “not systematically affected”. For the same molecule, the apnea reducing effect ([1]; obstructive and central events) was “potent apnea reducing effect”, the daytime sleepiness ([1]; spontaneous reporting, already after 10 days of treatment) was “markedly reduced” and the blood glucose concentration [1, 7] was “gradually reduced”. For the same molecule, the blood pressure [1, 7] was “gradually reduced”, the nocturnal snoring episodes ([1]; subjective and spouse reports, soon after onset of treatment) was “clear reduction” and the apnea reducing effect ([2]; dosing levels from below 100 mg up to 600 mg daily) was “potent apnea reducing effect”. The “AHI, mean for all patients” value [2, 8] was 25 per hour of sleep, the “BMI, mean for all patients” value [2, 8] was 31 kg/m^2 and the “Sat. min, mean for all patients” value [2, 8] was 85. The “AHI, mean for all patients” value [2, 9] was 22 per hour of sleep, the “BMI, mean for all patients” value [2, 9] was 30 kg/m^2 and the “Sat. min, mean for all patients” value [2, 9] was 86. The AHI ([2]; patient one, follow-up 1, dose 100 mg, 7 days of treatment, baseline 20) was 12 per hour of sleep, the BMI ([2]; patient one, follow-up 1, dose 100 mg, 7 days of treatment, baseline 28.3) was 28.3 kg/m^2 and the “Sat. min (lowest oxygen saturation value reached during the sleep recording)” value ([2]; patient one, follow-up 1, dose 100 mg, 7 days of treatment, baseline 88) was 85. For the same molecule, the AHI ([2]; patient one, follow-up 2, dose 200 mg, 149 days of treatment, baseline 20) was 11 per hour of sleep, the BMI ([2]; patient one, follow-up 2, dose 200 mg, 149 days of treatment, baseline 28.3) was 27.9 kg/m^2 and the “Sat. min (lowest oxygen saturation value reached during the sleep recording)” value ([2]; patient one, follow-up 2, dose 200 mg, 149 days of treatment, baseline 88) was 90. For the same molecule, the BMI ([2]; patient three, follow-up 1, dose 100 mg, 10 days of treatment, baseline 35.0) was 35.1 kg/m^2, the AHI ([2]; patient three, follow-up 1, dose 100 mg, 10 days of treatment, baseline 57) was 59 per hour of sleep and the “Sat. min (lowest oxygen saturation value reached during the sleep recording)” value ([2]; patient three, follow-up 1, dose 100 mg, 10 days of treatment, baseline 79) was 80. For the same molecule, the BMI ([2]; patient three, follow-up 2, dose 600 mg, 218 days of treatment, baseline 35.0) was 33.5 kg/m^2, the AHI ([2]; patient three, follow-up 2, dose 600 mg, 218 days of treatment, baseline 57) was 53 per hour of sleep and the “Sat. min (lowest oxygen saturation value reached during the sleep recording)” value ([2]; patient three, follow-up 2, dose 600 mg, 218 days of treatment, baseline 79) was 78. The AHI [2, 10] was 8, the BMI [2, 10] was 31.3 and the AHI ([2]; patient two, follow-up 1, dose 400 mg, 81 days of treatment, baseline 12) was 3 per hour of sleep. The BMI ([2]; patient two, follow-up 1, dose 400 mg, 81 days of treatment, baseline 31.4) was 30.7 kg/m^2, the “Sat. min (lowest oxygen saturation value reached during the sleep recording)” value ([2]; patient two, follow-up 1, dose 400 mg, 81 days of treatment, baseline 86) was 91 and the AHI ([2]; patient two, follow-up 2, dose 400 mg, 165 days of treatment, baseline 12) was 3 per hour of sleep. For the same molecule, the BMI ([2]; patient two, follow-up 2, dose 400 mg, 165 days of treatment, baseline 31.4) was 29.3 kg/m^2, the “Sat. min (lowest oxygen saturation value reached during the sleep recording)” value ([2]; patient two, follow-up 2, dose 400 mg, 165 days of treatment, baseline 86) was 90 and the daytime sleepiness ([2]; spontaneous reporting by the patients) was “overall positive effect”. For the same molecule, the “polysomnographically recorded sleep variables” value ([2]; three patients, during treatment) was “not systematically affected”, the side effects ([2]; three patients, up to 600 mg, up to an average of 177 days) was “No significant side effects were reported” and the half-life in plasma [3] was “about 60 hrs”.
